From patent US20240108590A1, “MAINTENANCE OF PROGRAMMED CHRONIC LIVER INJURY OF FAH GENE-DEFICIENT ANIMALS AND APPLICATION THEREOF IN PREPARATION OF HETEROLOGOUS LIVER MODELS” (Jiangsu University, priority 2020, published 2024)

Tests used:
[1] = system: Fah−/−Rag2−/−IL2rg−/− rats (FRG rats); test: Survival of FRG rats under NTBC supply / programmed NTBC controlling; format: in vivo, rat
Experimental: Fah^−/−Rag2^−/−IL2rg^−/− rats (FRG rats) were housed in the Experimental Animal Center of Jiangsu University.
In the past feeding, FRG rats were daily supplied with 5-8 mg/L. In the present disclosure, the lowest dose of 5 mg/L NTBC was set as 100% NTBC; According to the weight (250-300 g) and the amount of water (25-50 ml/day) of rats, we can get: • 4% NTBC: equivalent to an average of 0.03 mg/kg/day; • 100% NTBC: equivalent to an average of 0.75 mg/kg/day. • (2) The transplantation was performed under an anesthesia machine using isoflurane. The rat was fixed with its abdomen facing upward, and cleaned and disinfected with iodine and alcohol after dehairing. • (3) By cutting the epidermis and muscle layers, the hepatic portal vein was found. 2×10^6 human primary hepatocytes (resuspended in 800 μl DMEM+10% FBS) were slowly injected with a 26G needle. After completing the injection and paused for a few seconds, the needle was then pulled out, with the needle port quickly pressed with a sterile cotton swab. • (4) After pressing for about 1 minute, with no blood effusion be observed, the muscle and epidermis were sutured and the wound was disinfected with alcohol cotton.
The optimal NTBC maintenance concentration was determined by comparing the survival rate of rats at different NTBC concentrations (0%, 1%, 4%, 10%, 100%).
Due to a long period of the humanization process and in order to further improve the long-term survival rate of rats under liver injury, the inventors designed a series of NTBC dosage regimens, which are called Programmed NTBC controlling scheme with a fixed cycle period (Programmed NTBC controlling, NTBC^P), including 5, 7 and 9 days of maintenance in 4% NTBC conditions, respectively, and 4 days of 100% NTBC recovery after that to alleviate accumulated liver injury (FIG. 2C).

FRG rats = test: Liver function test (serum ALT and AST); format: in vivo, rat
Experimental: The content of alanine aminotransferase (ALT) and aspartate aminotransferase (AST) in rat serum was measured according to the instructions of biochemical analyzer FUJI DRI-CHEM 7000V (Fujifilm. Japan).

rat livers [2] = test: Sirius red staining, degree of liver fibrosis; format: in vivo; conditions: programmed NTBC 7+4 compared with 5+4
Afp = test: Quantitative qPCR of rat Afp gene in liver; format: in vivo; conditions: long-term programmed NTBC controlling (5+4 and 7+4)
Experimental: 1 μg RNA was reverse-transcribed into cDNA with Revert Aid RT kit according to manufacturer's instructions. According to the instructions of THUNDERBIRD SYBR qPCR Mix kit, cDNA was amplified and quantitatively analyzed on a quantitative PCR machine. Relative expression levels of target genes were based on ACTB as an internal reference. All data were repeated at least twice.

[3] = system: primary human hepatocytes (PHH); test: Measurement of human albumin secretion in serum of PHH-transplanted rats (ELISA); format: in vivo, rat
Experimental: 100 μl of rat peripheral blood was collected through the tail vein, and after coagulation at room temperature, centrifuged at 400-g for 10 minutes, with the supernatant collected to obtain serum. The secretion level of human albumin was tested according to the instructions of the Human Albumin ELISA Quantitation Set kit. Serum was diluted 10-100000 times according to the actual concentration, so that the calculated value falls within the linear range of the standard curve to obtain accurate values.
(§1) 12. Primary Hepatocyte Transplantation and Programmed NTBC Circulation • (1) Preparation before transplantation: Female FRG rats aged 7-8 weeks were intraperitoneally injected with 30 mg/kg Retrorsine 2 weeks before transplantation, and the concentration of NTBC in daily water was reduced from the normal maintenance concentration (5˜8 mg/L) to low concentration (0.2 mg/L) 1 week before transplantation. When the programmed NTBC cycle began, daily NTBC water was provided according to the method of 0.2 mg/L×7 days+5 mg/L×4 days (one cycle period of 11 days in total).

[4] = system: primary human hepatocytes (PHH); test: Repopulation rate of human hepatocytes in FRG rat livers (hNuclei immunostaining); format: in vivo; conditions: cyclic NTBC withdrawal/administration based on stepped withdrawal or body weight change, Fah-deficient rats, preliminary tests
Experimental: as §1
By immunostaining of the human-specific marker hNuclei, the repopulation rates of humanized rat livers can be calculated.

[5] = system: hALB-positive hepatocytes; test: Ki67 and hALB counterstaining of humanized livers; format: in vivo, rat; conditions: NTBC^P, 7 months after transplantation
Experimental: 8. Immunofluorescence Staining • (1) Frozen sections (7 μm) were fixed in 4% PFA at room temperature for 10 minutes, or in methanol:acetone (1:1) at −30° C. for 30 minutes. • (2) Wash three times with 0.1% tween-PBS for 5 minutes each time. • (3) 10% goat or donkey serum was used for blocking for 60 minutes at room temperature. • (4) The primary antibody was used for incubation overnight at 4° C. • (5) Wash three times with 0.1% tween-PBS for 5 minutes each time. • (6) The secondary antibody conjugated with fluorescein was used for incubation at room temperature for 60 minutes. • (7) Wash three times with PBS for 5 minutes each time. • (8) DAPI was added and the sections were mounted by mounting medium and preserved.

humanized livers = test: Detection of humanized liver tumorigenesis (liver/bodyweight ratio, histology, AFP); conditions: NTBC^P, 7 months after PHH transplantation
Experimental: Under the programmed NTBC controlling scheme, NTBC^P, (7+4: 7 days of 4% NTBC+4 days of 100% NTBC cycle; and Retrorsine pretreatment) mentioned above, humanized livers were obtained and liver/bodyweight ratios were calculated 7 months after transplantation of PHH in FRG rats.

UGT2B7 [6] = test: UGT2B7 metabolism test in vivo; parameters: species or system rat; conditions: rats with liver humanization vs control group, after oral AZT
Experimental: Liver humanized and […] FRG rats were orally administered 15 mg/kg zidovudine (Wako), and peripheral blood was collected after 0, 0.5, 1, 2, 4 and 8 hours. After 30 μl of plasma was diluted 2 fold with PBS, the contents of substrates and metabolites were detected by LC-MS/MS (Agilent 1200 HPLC and ABI 4000 mass-spectrometer).

UGT2B7 [7] = molecular target: T1, UGT2B7 (Homo sapiens, UniProt P16662); conditions: in human; cited from earlier work
T1 sequence (P16662 24-529): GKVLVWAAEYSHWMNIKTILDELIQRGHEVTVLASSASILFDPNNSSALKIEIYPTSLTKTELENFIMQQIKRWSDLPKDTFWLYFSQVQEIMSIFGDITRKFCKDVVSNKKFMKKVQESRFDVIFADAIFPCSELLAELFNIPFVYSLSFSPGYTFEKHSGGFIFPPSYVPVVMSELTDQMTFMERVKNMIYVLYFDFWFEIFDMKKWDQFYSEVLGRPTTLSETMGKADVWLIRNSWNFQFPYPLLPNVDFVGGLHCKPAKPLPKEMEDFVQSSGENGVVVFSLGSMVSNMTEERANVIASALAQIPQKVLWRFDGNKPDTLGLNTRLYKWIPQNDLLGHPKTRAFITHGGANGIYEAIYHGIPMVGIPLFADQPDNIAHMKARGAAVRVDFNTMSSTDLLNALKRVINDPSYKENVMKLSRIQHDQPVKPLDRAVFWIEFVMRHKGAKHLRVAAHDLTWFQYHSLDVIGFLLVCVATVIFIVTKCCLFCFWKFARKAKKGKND

UGT2B7 [8] = conditions: in rats; cited from earlier work
rat livers [9] = test: Ki67 staining of rat livers with or without RS pretreatment; format: in vivo; conditions: RS pretreatment vs none, after 2 months of programmed NTBC controlling
Experimental: 7. Immunohistochemistry • (1) The steps of dewaxing and rehydration are the same as above. • (2) Draw a circle around the sample with an ImmunoPen, drop a drop of 3% H2O2 for 15 minutes at room temperature for blocking endogenous peroxidase. • (3) Wash twice with PBS for 5 minutes each time. • (4) The blocking was carried with 1:20 Normal horse serum (dissolved in 1% BSA-PBS), incubated at room temperature for 20 minutes and washed for 3 times with PBS. • (5) The primary antibody was added, then the slices were put in a humid box, sealed and kept overnight at 4 degrees. • (6) Wash three times with PBS for 5 minutes each time. • (7) Secondary antibody was added and incubated at room temperature for 30 minutes. Wash three times with PBS for 5 minutes each time. • (8) AB solution in ABC kit (1:100 dilution of solution A and B) was added and incubated at room temperature for 30 minutes. Wash three times with PBS for 5 minutes each time. • (9) DAB coloration was carried and the time for coloration was adjusted according to different antibodies. • (10) Hematoxylin counterstaining for 20 minutes. Rinse with tap water for half an hour. • (11) Gradient dehydration: 50% ethanol, 70% ethanol, 80% ethanol, 90% ethanol, 100% ethanol, each for 2 minutes. • (12) After 15-30 minutes of xylene, sections were sealed with neutral resin and saved. […]

In the case of `O=C1CCCC(=O)C1C(=O)c1ccc(C(F)(F)F)cc1[N+](=O)[O-]` [NTBC, 2-(2-nitro-4-trifluoromethylbenzoyl)-1.3 cyclohexanedione], the median survival time ([1]; NTBC concentration 4% of the maintenance dose (5 mg/L)) is reported as 22 days, the “rats surviving for at least 20 weeks” value ([1]; PHH-transplanted FRG rats, NTBC^P (7+4) with Retrorsine pretreatment) is reported as 6/7 and the “healthy survival of FRG rats” value ([1]; maintenance of 100% NTBC (5 mg/L in daily water)) is reported as “at least 1.5 years”. For the same molecule, the “levels of ALT and AST” value (FRG rats; 4% NTBC compared with 10% NTBC) was “higher levels of ALT and AST”, the “levels of ALT and AST” value (FRG rats; programmed NTBC 7+4 compared with 5+4) was “significantly higher” and the “degree of liver fibrosis” value (rat livers [2]) was “more significant”. For the same molecule, the “expression of rat liver oncogene Afp” value (Afp) was “did not lead to abnormal upregulation”, the “human albumin secretion level, mean” value ([3]; NTBC^P (7+4) with Retrorsine pretreatment, 7 months after PHH transplantation) was 1.7 ± 0.3 mg/mL and the “proportion of human hepatocyte repopulation” value [4] was “less than 10%”. For the same molecule, the “proportion of Ki67-positive cells in hALB-positive hepatocytes” value [5] was “more than 10%”, the “AFP gene and protein levels” value (humanized livers) was “no abnormal up-regulation” and the “tumor formation (histology)” value (humanized livers) was “no tumor formation”. For the same molecule, the liver/bodyweight ratio (humanized livers; vs nontransplanted controls) was “not significantly increased”.

For `Cc1cn([C@H]2C[C@H](N=[N+]=[N-])[C@@H](CO)O2)c(=O)[nH]c1=O` [AZT, zidovudine], the “AZT-5′-glucuronide concentration” value (UGT2B7 [6]) is given as “significantly higher”, the “AZT metabolized to AZT-5′-glucuronide” value (UGT2B7 [7]) is given as 75% and the “metabolic conversion rate of AZT to AZT-5′-glucuronide” value (UGT2B7 [8]) is given as 10%.

In the case of Retrorsine, the “proportion of Ki67 positive cells in rat livers” value (rat livers [9]) is reported as “significantly lower”, the “human albumin secretion level” value ([3]; RS pretreatment vs none, within 4 weeks after PHH transplantation, NTBC 7+4) is reported as “increased significantly” and the “human albumin secretion level” value ([3]; Retrorsine combined with partial hepatectomy, before development of NTBC^P scheme) is reported as 90 µg/mL.
